Measurements published in the kinase profiling compilation of Christmann-Franck et al. (2016).

How the values were obtained:
Test in all cases: radiometric filter-binding kinase assay, Kinase HotSpot
Details in all cases: compound 0.5 µM; ATP 10 µM
ABL2 (human) = ABL2 (human) (UniProt P42684)
ACVRL1 (human) = ACVRL1 (human) (UniProt P37023)
CAMK1D (human) = CAMK1D (human) (UniProt Q8IU85)
CDC42BPB (human) = CDC42BPB (human) (UniProt Q9Y5S2)
CDK7 CCNH MNAT1 (human) = CDK7 CCNH MNAT1 (human) (UniProt P50613+P51948+P51946)
CDK9 CCNK (human) = CDK9 CCNK (human) (UniProt O75909+P50750)
CDK9 CCNT1 (human) = CDK9 CCNT1 (human) (UniProt P50750+O60563)
CSNK1G3 (human) = CSNK1G3 (human) (UniProt Q9Y6M4)
DAPK2 (human) = DAPK2 (human) (UniProt Q9UIK4)
DSTYK (human) = DSTYK (human) (UniProt Q6XUX3)
DYRK1B (human) = DYRK1B (human) (UniProt Q9Y463)
DYRK4 (human) = DYRK4 (human) (UniProt Q9NR20)
EPHA6 (human) = EPHA6 (human) (UniProt Q9UF33)
FGFR4 (human) = FGFR4 (human) (UniProt P22455)
FLT3 (human) = FLT3 (human) (UniProt P36888)
GSK3B (human) = GSK3B (human) (UniProt P49841)
JAK2 JH1 JH2 (human) = JAK2 JH1 JH2 (human) (UniProt O60674)
JAK3 JH1 JH2 (human) = JAK3 JH1 JH2 (human) (UniProt P52333)
LIMK1 (human) = LIMK1 (human) (UniProt P53667)
MAP2K1 (human) = MAP2K1 (human) (UniProt Q02750)
MAP3K10 (human) = MAP3K10 (human) (UniProt Q02779)
MAPKAPK5 (human) = MAPKAPK5 (human) (UniProt Q8IW41)
MARK1 (human) = MARK1 (human) (UniProt Q9P0L2)
MERTK (human) = MERTK (human) (UniProt Q12866)
NTRK2 (human) = NTRK2 (human) (UniProt Q16620)
NUAK1 (human) = NUAK1 (human) (UniProt O60285)
PAK1 (human) = PAK1 (human) (UniProt Q13153)
PAK2 (human) = PAK2 (human) (UniProt Q13177)
PBK (human) = PBK (human) (UniProt Q96KB5)
PDPK1 (human) = PDPK1 (human) (UniProt O15530)
PLK3 (human) = PLK3 (human) (UniProt Q9H4B4)
PNCK (human) = PNCK (human) (UniProt Q6P2M8)
PRKCD (human) = PRKCD (human) (UniProt Q05655)
PRKCE (human) = PRKCE (human) (UniProt Q02156)
PRKG2 (human) = PRKG2 (human) (UniProt Q13237)
SRPK1 (human) = SRPK1 (human) (UniProt Q96SB4)
TAOK2 (human) = TAOK2 (human) (UniProt Q9UL54)
TGFBR2 (human) = TGFBR2 (human) (UniProt P37173)
[1] = molecular target: TYK2 JH1 catalytic (human) (UniProt P29597)
YES1 (human) = YES1 (human) (UniProt P07947)
GRK5 (human) = GRK5 (human) (UniProt P34947)

PLK3 (human), sequence (Q9H4B4 whole entry, looked up): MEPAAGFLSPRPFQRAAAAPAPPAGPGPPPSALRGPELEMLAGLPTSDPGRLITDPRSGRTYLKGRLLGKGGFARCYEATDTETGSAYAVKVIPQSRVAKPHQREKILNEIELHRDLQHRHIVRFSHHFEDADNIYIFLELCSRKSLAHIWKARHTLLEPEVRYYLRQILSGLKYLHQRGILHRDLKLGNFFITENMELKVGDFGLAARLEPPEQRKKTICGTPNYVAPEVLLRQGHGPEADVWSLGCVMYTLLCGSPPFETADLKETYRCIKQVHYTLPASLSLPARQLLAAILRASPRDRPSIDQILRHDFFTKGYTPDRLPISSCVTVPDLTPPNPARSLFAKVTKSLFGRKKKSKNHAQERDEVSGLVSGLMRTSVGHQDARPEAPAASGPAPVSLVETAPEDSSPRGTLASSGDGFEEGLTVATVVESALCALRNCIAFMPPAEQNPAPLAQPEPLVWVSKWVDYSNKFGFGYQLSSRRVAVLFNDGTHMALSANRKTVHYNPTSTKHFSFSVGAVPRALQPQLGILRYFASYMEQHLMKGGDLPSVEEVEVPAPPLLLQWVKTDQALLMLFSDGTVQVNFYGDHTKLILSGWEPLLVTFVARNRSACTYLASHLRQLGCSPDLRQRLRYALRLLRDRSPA
DSTYK (human), sequence (Q6XUX3 whole entry, looked up): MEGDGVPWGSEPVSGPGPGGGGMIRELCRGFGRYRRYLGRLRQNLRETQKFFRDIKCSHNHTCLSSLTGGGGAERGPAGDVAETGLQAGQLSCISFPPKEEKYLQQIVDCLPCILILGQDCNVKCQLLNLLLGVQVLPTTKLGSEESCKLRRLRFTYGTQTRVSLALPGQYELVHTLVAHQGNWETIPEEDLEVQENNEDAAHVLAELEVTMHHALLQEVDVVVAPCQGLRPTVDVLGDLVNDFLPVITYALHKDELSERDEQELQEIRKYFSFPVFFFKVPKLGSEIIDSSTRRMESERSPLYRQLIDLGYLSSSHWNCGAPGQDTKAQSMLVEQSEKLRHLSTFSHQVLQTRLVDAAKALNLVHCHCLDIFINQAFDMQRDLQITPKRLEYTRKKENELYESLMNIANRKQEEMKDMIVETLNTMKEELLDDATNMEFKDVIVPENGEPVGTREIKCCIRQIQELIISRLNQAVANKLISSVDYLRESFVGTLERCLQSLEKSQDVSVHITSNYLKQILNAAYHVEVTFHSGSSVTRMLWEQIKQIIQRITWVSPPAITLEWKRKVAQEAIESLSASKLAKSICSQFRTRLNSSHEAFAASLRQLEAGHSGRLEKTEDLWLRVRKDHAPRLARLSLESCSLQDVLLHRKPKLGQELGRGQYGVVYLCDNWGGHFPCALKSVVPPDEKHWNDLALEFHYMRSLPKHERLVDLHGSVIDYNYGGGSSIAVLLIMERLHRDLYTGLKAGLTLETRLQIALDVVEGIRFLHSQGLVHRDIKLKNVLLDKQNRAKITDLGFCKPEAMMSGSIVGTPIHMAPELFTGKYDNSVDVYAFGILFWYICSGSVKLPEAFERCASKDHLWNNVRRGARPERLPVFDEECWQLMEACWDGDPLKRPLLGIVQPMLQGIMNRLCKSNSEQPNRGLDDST
FLT3 (human), sequence (P36888 whole entry, looked up): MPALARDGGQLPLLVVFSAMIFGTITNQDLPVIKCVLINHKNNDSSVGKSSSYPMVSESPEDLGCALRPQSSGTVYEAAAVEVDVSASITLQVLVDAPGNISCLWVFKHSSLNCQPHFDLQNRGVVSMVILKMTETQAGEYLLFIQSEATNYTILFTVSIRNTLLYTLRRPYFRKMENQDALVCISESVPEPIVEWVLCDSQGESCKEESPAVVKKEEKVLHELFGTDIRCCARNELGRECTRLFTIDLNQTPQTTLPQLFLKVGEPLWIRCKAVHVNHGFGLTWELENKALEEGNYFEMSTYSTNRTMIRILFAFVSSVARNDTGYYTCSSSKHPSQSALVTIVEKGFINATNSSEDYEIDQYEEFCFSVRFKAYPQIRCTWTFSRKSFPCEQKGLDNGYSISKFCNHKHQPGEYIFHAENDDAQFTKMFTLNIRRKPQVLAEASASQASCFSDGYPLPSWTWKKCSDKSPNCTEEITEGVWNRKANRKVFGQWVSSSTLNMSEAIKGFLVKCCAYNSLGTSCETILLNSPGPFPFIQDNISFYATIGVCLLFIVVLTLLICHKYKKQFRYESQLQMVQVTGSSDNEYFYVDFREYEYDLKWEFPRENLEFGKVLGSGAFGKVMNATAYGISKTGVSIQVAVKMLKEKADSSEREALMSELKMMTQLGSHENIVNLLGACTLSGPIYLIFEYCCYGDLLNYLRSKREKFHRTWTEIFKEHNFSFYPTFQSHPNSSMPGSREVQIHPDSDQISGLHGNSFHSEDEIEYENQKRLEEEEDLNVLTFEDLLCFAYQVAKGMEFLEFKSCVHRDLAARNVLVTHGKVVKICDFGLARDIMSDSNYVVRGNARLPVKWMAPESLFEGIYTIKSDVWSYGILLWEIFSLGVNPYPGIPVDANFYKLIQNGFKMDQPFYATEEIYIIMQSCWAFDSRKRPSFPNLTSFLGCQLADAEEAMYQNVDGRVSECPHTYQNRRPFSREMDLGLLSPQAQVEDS
PRKCD (human), sequence (Q05655 whole entry, looked up): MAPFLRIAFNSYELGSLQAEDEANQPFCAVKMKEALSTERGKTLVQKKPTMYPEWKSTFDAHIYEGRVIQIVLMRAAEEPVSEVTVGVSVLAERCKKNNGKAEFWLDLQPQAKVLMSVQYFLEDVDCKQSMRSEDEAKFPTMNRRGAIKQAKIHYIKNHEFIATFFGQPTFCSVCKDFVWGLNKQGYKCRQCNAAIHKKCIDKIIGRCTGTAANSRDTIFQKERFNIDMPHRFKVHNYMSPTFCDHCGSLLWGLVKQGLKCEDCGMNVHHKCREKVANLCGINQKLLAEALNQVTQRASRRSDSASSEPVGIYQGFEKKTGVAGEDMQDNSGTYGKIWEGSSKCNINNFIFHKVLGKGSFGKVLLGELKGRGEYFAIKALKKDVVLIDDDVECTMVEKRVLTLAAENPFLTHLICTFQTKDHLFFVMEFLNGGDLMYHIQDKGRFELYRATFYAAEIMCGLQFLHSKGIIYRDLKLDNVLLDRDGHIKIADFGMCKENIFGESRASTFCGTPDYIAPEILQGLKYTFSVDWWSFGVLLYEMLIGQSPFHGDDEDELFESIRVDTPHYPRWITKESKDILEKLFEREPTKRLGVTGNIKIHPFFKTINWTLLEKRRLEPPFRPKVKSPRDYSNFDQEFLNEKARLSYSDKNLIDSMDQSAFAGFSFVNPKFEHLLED
PBK (human), sequence (Q96KB5 whole entry, looked up): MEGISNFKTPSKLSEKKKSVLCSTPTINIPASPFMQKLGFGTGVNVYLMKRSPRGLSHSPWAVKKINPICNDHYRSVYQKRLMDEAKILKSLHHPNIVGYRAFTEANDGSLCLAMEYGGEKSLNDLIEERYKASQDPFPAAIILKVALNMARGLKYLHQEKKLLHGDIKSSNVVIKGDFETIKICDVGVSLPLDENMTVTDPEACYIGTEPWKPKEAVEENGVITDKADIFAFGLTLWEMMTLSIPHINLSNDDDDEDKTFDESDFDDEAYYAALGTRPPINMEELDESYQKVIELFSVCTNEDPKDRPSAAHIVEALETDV
NTRK2 (human), sequence (Q16620 whole entry, looked up): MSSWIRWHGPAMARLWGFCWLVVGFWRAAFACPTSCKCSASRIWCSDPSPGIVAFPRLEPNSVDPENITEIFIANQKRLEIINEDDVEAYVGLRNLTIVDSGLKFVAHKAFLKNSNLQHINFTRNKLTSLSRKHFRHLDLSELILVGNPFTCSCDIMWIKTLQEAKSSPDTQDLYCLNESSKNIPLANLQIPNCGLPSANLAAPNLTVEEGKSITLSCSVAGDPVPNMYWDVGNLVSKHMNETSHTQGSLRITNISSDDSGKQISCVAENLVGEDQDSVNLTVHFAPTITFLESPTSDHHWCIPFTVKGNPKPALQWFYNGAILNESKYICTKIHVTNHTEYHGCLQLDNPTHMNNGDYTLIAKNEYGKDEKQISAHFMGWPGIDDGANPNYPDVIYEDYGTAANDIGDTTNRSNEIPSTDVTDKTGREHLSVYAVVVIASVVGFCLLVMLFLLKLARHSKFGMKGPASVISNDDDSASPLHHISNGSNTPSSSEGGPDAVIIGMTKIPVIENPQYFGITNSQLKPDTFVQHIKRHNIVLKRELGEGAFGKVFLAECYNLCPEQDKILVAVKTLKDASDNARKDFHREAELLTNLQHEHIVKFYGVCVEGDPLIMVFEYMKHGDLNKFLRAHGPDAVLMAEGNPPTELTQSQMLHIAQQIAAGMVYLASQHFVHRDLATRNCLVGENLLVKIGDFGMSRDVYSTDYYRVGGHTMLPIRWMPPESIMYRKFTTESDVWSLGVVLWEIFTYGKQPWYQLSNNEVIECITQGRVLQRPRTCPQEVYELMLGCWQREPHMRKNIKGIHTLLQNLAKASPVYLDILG
DAPK2 (human), sequence (Q9UIK4 whole entry, looked up): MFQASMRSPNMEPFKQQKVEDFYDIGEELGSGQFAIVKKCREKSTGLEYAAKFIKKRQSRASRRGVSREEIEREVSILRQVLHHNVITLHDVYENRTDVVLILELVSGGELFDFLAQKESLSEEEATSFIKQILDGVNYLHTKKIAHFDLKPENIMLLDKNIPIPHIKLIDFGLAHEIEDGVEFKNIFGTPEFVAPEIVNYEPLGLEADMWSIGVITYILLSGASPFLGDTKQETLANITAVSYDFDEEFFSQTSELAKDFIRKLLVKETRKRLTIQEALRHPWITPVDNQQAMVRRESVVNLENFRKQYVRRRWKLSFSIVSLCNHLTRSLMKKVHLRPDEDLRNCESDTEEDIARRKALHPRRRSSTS

`Oc1cccc(-c2nc(N3CCOCC3)c3oc4ncccc4c3n2)c1` was tested, and the residual activity (ABL2 (human)) was 94.9%, the residual activity (ACVRL1 (human)) was 105% and the residual activity (CAMK1D (human)) was 121%. The residual activity (CDC42BPB (human)) was 99.4%, the residual activity (CDK7 CCNH MNAT1 (human)) was 99.9% and the residual activity (CDK9 CCNK (human)) was 96%. It also gave a residual activity (CDK9 CCNT1 (human)) of 105%, a residual activity (CSNK1G3 (human)) of 99.9% and a residual activity (DAPK2 (human)) of 117%. It also gave a residual activity (DSTYK (human)) of 96.1%, a residual activity (DYRK1B (human)) of 98.9% and a residual activity (DYRK4 (human)) of 96.6%. It also gave a residual activity (EPHA6 (human)) of 79%, a residual activity (FGFR4 (human)) of 102% and a residual activity (FLT3 (human)) of 87.1%. The residual activity (GSK3B (human)) was 94.8%, the residual activity (JAK2 JH1 JH2 (human)) was 92.6% and the residual activity (JAK3 JH1 JH2 (human)) was 99%. The residual activity (LIMK1 (human)) was 93.7%, the residual activity (MAP2K1 (human)) was 97.7% and the residual activity (MAP3K10 (human)) was 92%. It also gave a residual activity (MAPKAPK5 (human)) of 85.7%, a residual activity (MARK1 (human)) of 97.6% and a residual activity (MERTK (human)) of 87.8%. It also gave a residual activity (NTRK2 (human)) of 90.2%, a residual activity (NUAK1 (human)) of 86.6% and a residual activity (PAK1 (human)) of 97.6%. It also gave a residual activity (PAK2 (human)) of 97.5%, a residual activity (PBK (human)) of 88.7% and a residual activity (PDPK1 (human)) of 103%. For the same molecule, the residual activity (PLK3 (human)) was 94.6%, the residual activity (PNCK (human)) was 96.7% and the residual activity (PRKCD (human)) was 96%. The residual activity (PRKCE (human)) was 100%, the residual activity (PRKG2 (human)) was 89.2% and the residual activity (SRPK1 (human)) was 105%. For the same molecule, the residual activity (TAOK2 (human)) was 92.2%, the residual activity (TGFBR2 (human)) was 102% and the residual activity [1] was 73.6%. The residual activity (YES1 (human)) was 94.3%.

With `Cc1ccc(Nc2nccc(N(C)c3ccc4c(C)n(C)nc4c3)n2)cc1S(N)(=O)=O` the residual activity (ABL2 (human)) was 38.5%, the residual activity (ACVRL1 (human)) was 102% and the residual activity (CAMK1D (human)) was 91.5%. It also gave a residual activity (CDC42BPB (human)) of 99.9%, a residual activity (CDK7 CCNH MNAT1 (human)) of 103% and a residual activity (CDK9 CCNK (human)) of 92.7%. For the same molecule, the residual activity (CDK9 CCNT1 (human)) was 91.5%, the residual activity (CSNK1G3 (human)) was 97.1% and the residual activity (DAPK2 (human)) was 93%. For the same molecule, the residual activity (DSTYK (human)) was 94.3%, the residual activity (DYRK1B (human)) was 93.3% and the residual activity (DYRK4 (human)) was 106%. For the same molecule, the residual activity (EPHA6 (human)) was 80%, the residual activity (FGFR4 (human)) was 68.3% and the residual activity (FLT3 (human)) was 40.7%. The residual activity (GRK5 (human)) was 99.6%, the residual activity (JAK2 JH1 JH2 (human)) was 101% and the residual activity (JAK3 JH1 JH2 (human)) was 95.3%. It also gave a residual activity (MAP2K1 (human)) of 106%, a residual activity (MAP3K10 (human)) of 28.5% and a residual activity (MAPKAPK5 (human)) of 100%. It also gave a residual activity (MARK1 (human)) of 99.9%, a residual activity (MERTK (human)) of 57.2% and a residual activity (NTRK2 (human)) of 91.5%. It also gave a residual activity (NUAK1 (human)) of 53.4%, a residual activity (PAK1 (human)) of 89.1% and a residual activity (PAK2 (human)) of 98.9%. For the same molecule, the residual activity (PBK (human)) was 101%, the residual activity (PDPK1 (human)) was 93% and the residual activity (PLK3 (human)) was 101%. The residual activity (PNCK (human)) was 95.9%, the residual activity (PRKCD (human)) was 106% and the residual activity (PRKCE (human)) was 100%. The residual activity (PRKG2 (human)) was 96%, the residual activity (SRPK1 (human)) was 100% and the residual activity (TAOK2 (human)) was 26.8%. It also gave a residual activity (TGFBR2 (human)) of 100%, a residual activity [1] of 94% and a residual activity (YES1 (human)) of 52.6%.

For `CC(C)N(CCC(=O)c1ccc2ccccc2c1)Cc1ccccc1`, the residual activity (ABL2 (human)) was 100%, the residual activity (ACVRL1 (human)) was 107% and the residual activity (CDC42BPB (human)) was 95%. For the same molecule, the residual activity (CDK7 CCNH MNAT1 (human)) was 98%, the residual activity (CDK9 CCNK (human)) was 99.5% and the residual activity (CDK9 CCNT1 (human)) was 96.4%. For the same molecule, the residual activity (CSNK1G3 (human)) was 99%, the residual activity (DAPK2 (human)) was 99.6% and the residual activity (DSTYK (human)) was 84.9%. The residual activity (DYRK1B (human)) was 101%, the residual activity (DYRK4 (human)) was 88.5% and the residual activity (EPHA6 (human)) was 93.3%. For the same molecule, the residual activity (FGFR4 (human)) was 103%, the residual activity (FLT3 (human)) was 97.5% and the residual activity (GRK5 (human)) was 93.7%. The residual activity (GSK3B (human)) was 94.9%, the residual activity (JAK2 JH1 JH2 (human)) was 97.5% and the residual activity (JAK3 JH1 JH2 (human)) was 80.9%. It also gave a residual activity (LIMK1 (human)) of 103%, a residual activity (MAP2K1 (human)) of 82.5% and a residual activity (MAP3K10 (human)) of 92.6%. The residual activity (MAPKAPK5 (human)) was 96.6%, the residual activity (MARK1 (human)) was 97.7% and the residual activity (MERTK (human)) was 106%. The residual activity (NTRK2 (human)) was 92.1%, the residual activity (NUAK1 (human)) was 97.1% and the residual activity (PAK1 (human)) was 98.3%. For the same molecule, the residual activity (PAK2 (human)) was 107%, the residual activity (PBK (human)) was 108% and the residual activity (PLK3 (human)) was 105%. The residual activity (PNCK (human)) was 102%, the residual activity (PRKCD (human)) was 94% and the residual activity (PRKCE (human)) was 95%. The residual activity (PRKG2 (human)) was 139%, the residual activity (SRPK1 (human)) was 103% and the residual activity (TAOK2 (human)) was 96.1%. For the same molecule, the residual activity (TGFBR2 (human)) was 98.8%, the residual activity [1] was 103% and the residual activity (YES1 (human)) was 100%.
